According to patent EP2530078A1, “THIAZOLE DERIVATIVE” (Takeda Pharmaceutical Company Limited, priority 2010, dated 2011):
Structures can show the parent of a compound that is named as a salt.

Molecular target: T1, human GPR52 (Homo sapiens, UniProt Q9Y2T5)
T1 construct: expressed in transfected cells; host or cells: CHO(dhfr-) cells
Experiment: Increase of intracellular cAMP concentration in human GPR52-expressing CHO cell (AlphaScreen cAMP assay)
Assay type: cell-based
Details: 0.5 h; test compound 10 µm, 37°C, 30 min, human GPR52-expressing CHO(dhfr-) cells; 100% = cAMP with 1 µM N-(2-hydroxyethyl)-3-[2-[3-(trifluoromethyl)benzyl]-1-benzofuran-4-yl]benzamide, 0% = DMSO; read-out: GPR52 agonist activity (%)
Protocol: Increase of intracellular cAMP concentration in human GPR52-expressing CHO cell
Using OptiPlate-384 (PerkinElmer Inc.), 1×10^4 human GPR52-expressing CHO(dhfr-) cells were incubated together with a test compound ([…]) in an assay buffer (30 µL, HBSS (containing Ca^2+ and Mg^2+), 0.5% BSA, 100 µM IBMX, 100 µM Ro20-1724, 5 mM HEPES (pH 7.55)) at 37°C for 30 min. Thereafter, according to the protocol of AlphaScreen cAMP Assay Kit (PerkinElmer Inc.), the intracellular cAMP concentration was measured by EnVision (PerkinElmer Inc.). The GPR52 agonist activity was calculated, assuming the intracellular cAMP concentration in the presence of 1 µM N-(2-hydroxyethyl)-3-[2-[3-(trifluoromethyl)benzyl]-1-benzofuran-4-yl]benzamide to be 100% and assuming the intracellular cAMP concentration when DMSO was added instead of the test compound to be 0%.

T1 sequence (Q9Y2T5 whole entry): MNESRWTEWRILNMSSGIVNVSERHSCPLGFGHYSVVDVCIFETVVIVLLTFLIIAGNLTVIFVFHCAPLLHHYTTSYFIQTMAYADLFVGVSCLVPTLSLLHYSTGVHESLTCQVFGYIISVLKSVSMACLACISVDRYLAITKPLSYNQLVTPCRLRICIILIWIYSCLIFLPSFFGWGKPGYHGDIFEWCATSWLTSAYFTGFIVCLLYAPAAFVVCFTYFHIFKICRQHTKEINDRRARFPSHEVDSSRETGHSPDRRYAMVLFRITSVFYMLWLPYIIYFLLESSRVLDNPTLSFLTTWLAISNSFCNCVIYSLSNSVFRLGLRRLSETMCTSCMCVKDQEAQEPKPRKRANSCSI

activation at 10 µM | Compound
92% | CCc1nc(Cc2cccc(C(F)(F)F)c2)sc1NC(=O)c1ccnn1C [Example 11, N-{4-ethyl-2-[3-(trifluoromethyl)benzyl]-1,3-thiazol-5-yl}-1-methyl-1H-pyrazole-5-carboxamide]
77% | Cc1nc(Cc2cc(F)cc(Cl)c2)sc1NC(=O)c1cc(Cn2ccnc2)nn1C [Example 243, N-[2-(3-chloro-5-fluorobenzyl)-4-methyl-1,3-thiazol-5-yl]-3-[(1H-imidazol-1-yl)methyl]-1-methyl-1H-pyrazole-5-carboxamide]
92% | Cn1nccc1C(=O)Nc1cnc(Cc2cccc(C(F)(F)F)c2)s1 [Example 1, 1-methyl-N-{2-[3-(trifluoromethyl)benzyl]-1,3-thiazol-5-yl}-1H-pyrazole-5-carboxamide]
69% | CC(=O)N1CCC(C(=O)Nc2sc(Cc3cccc(C(F)(F)F)c3)nc2C)C1 (stereo not drawn) [Example 21, 1-acetyl-N-{4-methyl-2-[3-(trifluoromethyl)benzyl]-1,3-thiazol-5-yl}pyrrolidine-3-carboxamide]
79% | Cc1nc(Cc2cc(F)cc(F)c2)sc1NC(=O)c1ccnn1C [Example 220, N-[2-(3,5-difluorobenzyl)-4-methyl-1,3-thiazol-5-yl]-1-methyl-1H-pyrazole-5-carboxamide]
82% | COC(=O)[C@@H]1C[C@@H]1C(=O)Nc1sc(Cc2cc(F)cc(Cl)c2)nc1C (relative stereo) [Example 190, methyl cis-2-{[2-(3-chloro-5-fluorobenzyl)-4-methyl-1,3-thiazol-5-yl]carbamoyl}cyclopropanecarboxylate]
91% | Cc1nc(Cc2cc(F)cc(C(F)(F)F)c2)sc1NC(=O)c1ccnn1C [Example 181, N-{2-[3-fluoro-5-(trifluoromethyl)benzyl]-4-methyl-1,3-thiazol-5-yl}-1-methyl-1H-pyrazole-5-carboxamide]
69% | Cc1nc(Cc2cc(F)cc(Cl)c2)sc1NC(=O)c1cc([S+](C)[O-])nn1C (stereo not drawn) [Example 247, N-[2-(3-chloro-5-fluorobenzyl)-4-methyl-1,3-thiazol-5-yl]-1-methyl-3-(methylsulfinyl)-1H-pyrazole-5-carboxamide]
90% | Cc1cccc(Cc2nc(C)c(NC(=O)c3ccnn3C)s2)c1 [Example 221, 1-methyl-N-[4-methyl-2-(3-methylbenzyl)-1,3-thiazol-5-yl]-1H-pyrazole-5-carboxamide]
70% | Cc1nc(Cc2cc(F)cc(Cl)c2)sc1NC(=O)c1cnn(C)c1 [Example 171, N-[2-(3-chloro-5-fluorobenzyl)-4-methyl-1,3-thiazol-5-yl]-1-methyl-1H-pyrazole-4-carboxamide]
79% | COc1cc(C(=O)Nc2sc(Cc3cc(F)cc(Cl)c3)nc2C)n(C)n1 [Example 235, N-[2-(3-chloro-5-fluorobenzyl)-4-methyl-1,3-thiazol-5-yl]-3-methoxy-1-methyl-1H-pyrazole-5-carboxamide]
81% | Cc1nc(Cc2cccc(S(C)(=O)=O)c2)sc1NC(=O)c1ccnn1C [Example 233, 1-methyl-N-{4-methyl-2-[3-(methylsulfonyl)benzyl]-1,3-thiazol-5-yl}-1H-pyrazole-5-carboxamide]
69% | Cc1nc(Cc2cc(F)cc(Cl)c2)sc1NC(=O)c1cc([N+](=O)[O-])nn1C [Example 158, N-[2-(3-chloro-5-fluorobenzyl)-4-methyl-1,3-thiazol-5-yl]-1-methyl-3-nitro-1H-pyrazole-5-carboxamide]
74% | Cc1nc(Cc2cc(F)cc(Cl)c2)sc1NC(=O)c1c(Cl)cnn1C [Example 206, 4-chloro-N-[2-(3-chloro-5-fluorobenzyl)-4-methyl-1,3-thiazol-5-yl]-1-methyl-1H-pyrazole-5-carboxamide]
71% | COCCNC(=O)C1(C(=O)Nc2sc(Cc3cc(F)cc(Cl)c3)nc2C)CC1 [Example 175, N-[2-(3-chloro-5-fluorobenzyl)-4-methyl-1,3-thiazol-5-yl]-N'-(2-methoxyethyl)cyclopropane-1,1-dicarboxamide]
71% | Cc1nc(Cc2cccc(C(F)(F)F)c2)sc1NC(=O)C1CCCNC1 (stereo not drawn) [Example 29, N-{4-methyl-2-[3-(trifluoromethyl)benzyl]-1,3-thiazol-5-yl}piperidine-3-carboxamide hydrochloride]
73% | Cc1nc(Cc2cccc(C(F)(F)F)c2)sc1NC(=O)c1cncn1C [Example 43, 1-methyl-N-{4-methyl-2-[3-(trifluoromethyl)-benzyl]-1,3-thiazol-5-yl}-1H-imidazole-5-carboxamide]
77% | Cc1nc(Cc2cccc(Cl)c2)sc1NC(=O)c1ccnn1C [Example 157, N-[2-(3-chlorobenzyl)-4-methyl-1,3-thiazol-5-yl]-1-methyl-1H-pyrazole-5-carboxamide]
94% | Cn1nccc1C(=O)Nc1sc(Cc2cccc(C(F)(F)F)c2)nc1C(F)(F)F [Example 17, 1-methyl-N-{4-(trifluoromethyl)-2-[3-(trifluoromethyl)benzyl]-1,3-thiazol-5-yl}-1H-pyrazole-5-carboxamide]
71% | CCOC(=O)c1cc(C(=O)Nc2sc(Cc3cc(F)cc(Cl)c3)nc2C)n(C)n1 [Example 159, ethyl 5-{[2-(3-chloro-5-fluorobenzyl)-4-methyl-1,3-thiazol-5-yl]carbamoyl}-1-methyl-1H-pyrazole-3-carboxylate]
99% | CC(=O)Nc1cn(C)c(C(=O)Nc2sc(Cc3cc(F)cc(Cl)c3)nc2C)n1 [Example 176, 4-(acetylamino)-N-[2-(3-chloro-5-fluorobenzyl)-4-methyl-1,3-thiazol-5-yl]-1-methyl-1H-imidazole-2-carboxamide]
96% | Cc1nc(Cc2cccc(C(F)(F)F)c2)sc1NC(=O)c1ccc(CCN2CCCC2)nc1 [Example 122, N-{4-methyl-2-[3-(trifluoromethyl)-benzyl]-1,3-thiazol-5-yl}-6-(2-pyrrolidin-1-ylethyl)pyridine-3-carboxamide]
77% | Cc1nc(Cc2cccc(C(F)(F)F)c2)sc1NC(=O)c1c(C)nn(C)c1Cl [Example 51, 5-chloro-1,3-dimethyl-N-{4-methyl-2-[3-(trifluoromethyl)-benzyl]-1,3-thiazol-5-yl}-1H-pyrazole-4-carboxamide]
69% | Cc1nc(Cc2cc(F)cc(Cl)c2)sc1NC(=O)c1cccc(S(C)(=O)=O)c1 [Example 228, N-[2-(3-chloro-5-fluorobenzyl)-4-methyl-1,3-thiazol-5-yl]-3-(methylsulfonyl)benzamide]
82% | Cc1nc(Cc2cccc(C(F)(F)F)c2)sc1NC(=O)c1ccnn1C [Example 110, 1-methyl-N-{4-methyl-2-[3-(trifluoromethyl)-benzyl]-1,3-thiazol-5-yl}-1H-pyrazole-5-carboxamide]

Same assay, conditions: test compound 10 µm, 37°C, 30 min, human GPR52-expressing CHO(dhfr-) cells; 100% = cAMP with 1 µM N-(2-hydroxyethyl)-3-[2-[3-(trifluoromethyl)benzyl]-1-benzofuran-4-yl]benzamide, 0% = DMSO

Compound | GPR52 agonist activity (%)
CCS(=O)(=O)N1CCC(C(=O)Nc2sc(Cc3cccc(C(F)(F)F)c3)nc2C)C1 (stereo not drawn) [Example 30, 1-(ethylsulfonyl)-N-(4-methyl-2-[3-(trifluoromethyl)benzyl]-1,3-thiazol-5-yl}pyrrolidine-3-carboxamide] | 81%
N^4-[2-(3-chloro-5-fluorobenzyl)-4-methyl-1,3-thiazol-5-yl]piperidine-1,4-dicarboxamide [Example 254] | 77%
